According to patent publication US10966993B2, “Pharmaceutical composition comprising a sulfonylurea drug and preparation method thereof” (JIANGSU AOSAIKANG PHARMACEUTICAL CO., LTD., priority 2016, dated 2021):

Tested on: MCAO rats
Test: Area and swelling degree of cerebral infarction in rat MCAO models
Type: in vivo, Sprague-Dawley (SD) rat
Conditions: n=8, glibenclamide 10 μg/kg ip at ischemia 4 h + 200 ng/h sc for 44 hours, after ischemia for 48 hours
Method: 7.2 Experiment Animals: Male Sprague-Dawley (SD) rat, clean grade, weighing at 200˜230 g. The temperature of animal feeding room was maintained at 20˜24° C., the humidity was maintained at 30˜70%; a cycle of lighting on 12 hours/lighting off 12 hours (06:00 AM on, 18:00 PM off) every day was employed. During the experiment, the animals were feed separately, and had free access to water and food.
The test drugs in group GB was formulated as follows: glibenclamide was dissolved in a little DMSO (dimethyl sulfoxide), the resulting solution was diluted to a DMSO concentration of 5 vol % with physiological saline, and the pH of the solution was adjusted to 8˜8.5 with NaOH. […]
Rats were rested for about 1 week before the experiment started. […] The blood flow in the brain was monitored with a laser Doppler (Model moorVMS-LDF2, Manufacturer moor) respectively pre-operation, post-operation and immediately after reperfusion, and the molding in which the ratio of the postoperative blood flow to the preoperative blood flow was less than 30% was regarded as a qualified molding. […]
After ischemia for 48 hours, the brain was taken and put into a brain slicer to slice coronal sections through the brain (2 mm each piece), stained at dark with 1% TTC for 15 min at 37° C., and analyzed for the area of infarction after taking a photograph. […]

In the case of `COc1ccc(Cl)cc1C(=O)NCCc1ccc(S(=O)(=O)NC(=O)NC2CCCCC2)cc1` [glibenclamide, 5-chloro-N-(4-[N-(cyclohexylcarbamoyl)aminosulfonyl]phenethyl)-2-methoxybenzamide], the “Swelling degree (area of infarction side hemisphere / non-infarction side hemisphere)” value is reported as 1.31 ± 0.04.
